Consider one molecule from US20060018921A1, “Histone deacetylase inhibitors and cognitive applications” (priority 2004, published 2006).

Assay [1] relates to Schaffer-collateral synapses. Description: Slice electrophysiology, basal synaptic transmission (baseline fEPSP, input/output, paired-pulse facilitation, tetanus depolarization). In kind it is cell-based, Sprague-Dawley rats.
The subject of the next assay is animals deficient in CBP. The settings on record: infusion directly into the brain of animals deficient in CBP; Korzus et al., Alarcon et al. (2004); cited from earlier work.
For the next assay, the system named is histone H3 (Lys14). Description: Acetylation of histone H3, acute hippocampal slices, area CA1. The settings on record: slices treated 1 h; PDA 3 μM, FSK 50 μM with 100 μM Ro20-1724, 4αP 3 μM, dFSK 50 μM with 100 μM Ro20-1724, U0126 20 μM, PD98059 50 μM, TSA 1.65 μM.
The subject of a further assay is ERK2. As to the kind of experiment: P-ERK2 western blot, acute hippocampal slices, area CA1. The settings on record: slices treated 1 h; PDA 3 μM, FSK 50 μM with 100 μM Ro20-1724, U0126 20 μM, PD98059 50 μM, 4αP 3 μM, dFSK 50 μM with 100 μM Ro20-1724, TSA.
Assay [2] concerns histone H4 (Lys5/Lys8/Lys12/Lys16). As to the kind of experiment: Acetylation of histone H4, acute hippocampal slices, area CA1. The settings on record: slices treated 1 h; TSA 1.65 μM.
In the next assay the test system is NMDA-Rs. As to the kind of experiment: NMDA-R mediated synaptic transmission in slices with CNQX. Type of assay: cell-based, Sprague-Dawley rats. The settings on record: TSA 1.65 μM over 3 h; CNQX 20 μM, ACSF with 4 mM CaCl2 and no MgCl2. As for the experimental part:
In FIG. 8A, slices were exposed to the AMPA-R antagonist CNQX (20 μM) and perfused with an ACSF containing 4 mM CaCl2 and no MgCl2. The resulting field potentials represent NMDA-R mediated synaptic transmission (English and Sweatt, 1997). […] Representative traces immediately before (dashed) and 186 min after (solid) introduction of TSA are shown. Calibration bar indicates 5 msec and 1 mV. In FIG. 8B, slices were exposed to both TSA (1.65 μM) and the NMDA-R antagonist AP5 (50 μM) 20 min prior to LTP induction. After induction of LTP, the AP5 was washed out but slices were still exposed to TSA. Induction of LTP in the presence of TSA was blocked by AP5 (n=8, F[89,612]=0.5, p<1). […] In FIG. 8C, depolarization was measured during a 100 Hz tetanus in slices treated with either vehicle (0.05% EtOH, n=10) or TSA (1.65 μM, n=10) for 20 min. […]
In another series of studies, the present inventors investigated the possibility that TSA was affecting properties of NMDA-Rs. To directly measure any long-term affects of TSA on NMDA-Rs, field potentials were recorded in the presence of the AMPA-R antagonist CNQX to isolate the NMDA-R-dependent component of synaptic transmission. […] To further explore the potential affects of TSA on synaptic transmission, we measured the depolarization that occurs during the 100 Hz tetanus used to induce LTP.

In the next assay the test system is ras transformed cells. The settings on record: Taunton et al., 1996; cited from earlier work.
The conditions of assay [3]: mouse model; Takahashi et al., 1996; cited from earlier work.

Entries after “also recorded” stand apart in the source; their conditions may differ.

With `CC(/C=C/C(=O)NO)=C\[C@@H](C)C(=O)c1ccc(N(C)C)cc1` [TSA, trichostatin A], the “input/output relationships and PPF, slices treated with DRB vs DRB and TSA” value in assay [1] (20 min and 3 h after application, data not shown) is on record as “no significant differences in basal synaptic transmission”. For the same molecule, the “depolarization during 100 Hz tetanus, area under the curve” value in assay [1] (TSA 1.65 μM for 20 min vs vehicle 0.05% EtOH) is given as “No significant difference in area under the curve”. In addition, in assay [1] (TSA for 20 min vs vehicle), the input/output relationships entry is given as “no significant effect; also recorded: No significant differences” and the paired-pulse facilitation result is “no significant effect; also recorded: unaffected”. In addition, in assay [1] (TSA for 3 h vs vehicle), the input/output relationships result was “no significant effect; also recorded: No significant differences” and the paired-pulse facilitation entry is recorded as “no significant effect; also recorded: unaffected”. Also, the “baseline synaptic efficacy where LTP was not induced” value in assay [1] (continuous TSA, up to 3 h after start of treatment) is given as “no effect on synaptic transmission in the absence of high-frequency stimulation; also recorded: no effect on baseline synaptic efficacy”. In addition, the “performance in long-term memory tasks” value with animals deficient in CBP was “improved the animals' performance in some long-term memory tasks”. In addition, in the assay with histone H3 (Lys14), the “histone H3 acetylation” value is on record as “significantly increased acetylation of H3; also recorded: increased acetylation of histone H3”. In the assay with ERK2, the “levels of P-ERK2” value was “without affecting levels of P-ERK2; also recorded: no effect on P-ERK2”. The “histone H4 acetylation” value in assay [2] is reported as “increased the acetylation of histone H4; also recorded: significant effect on H4 acetylation”. Further, in the assay on NMDA-Rs, the “NMDA-R mediated synaptic transmission” value is recorded as “unaffected; also recorded: no short or long-term effects”. In the assay with ras transformed cells, the hyperacetylation result was “induce hyperacetylation” and the “morphology of ras transformed cells” value is recorded as “cause reversion of ras transformed cells to normal morphology”. In assay [3], the immunosuppression entry is reported as “induces immunosuppression in a mouse model”.
